Blank lines part the entries; values can stand above or below the molecule they belong to. Activity calls are given as the source filed them. No cut-off for these calls is given here. Residues, ends and D or L forms follow the SMILES beside them. *: point of attachment. Propyl(2R-PamO,3-PamO) = CCCCCCCCCCCCCCCC(=O)OC[C@H](C*)OC(=O)CCCCCCCCCCCCCCC; Palmitoyl = CCCCCCCCCCCCCCCC(=O)*
Experiments:
BV-2 [1] = assay: Cytotoxicity against mouse BV2 cells assessed as cell viability up to 5 uM incubated for 24 hrs by CCK-8 assay; format: cell-based; details: bv-2, 24 h
[2] = (§1) Effect on IL-6 mRNA expression in TLR2-/- mouse BMDM cells at 0.1 to 1 uM by qRT-PCR analysis; format: ADME, cell-based
[3] = as §1; format: ADME, cell-based; remark: listed apart in the source
BV-2 [4] = assay: Effect on IkappaBalpha protein expression in mouse BV2 cells at 0.2 to 2 uM incubated for 12 hrs by Western blot analysis; format: ADME, cell-based; details: bv-2, 12 h
[5] = biological target: Toll-like receptor 2 (Mus musculus) (UniProt Q9QUN7); assay: Activation of TLR2 in wild type mouse BMDM cells assessed as stimulation of TNFalpha production at 0.1 to 1 uM incubated for 24 hrs by ELISA; format: cell-based
[6] = biological target: Toll-like receptor 2 (Mus musculus) (UniProt Q9QUN7); assay: Activation of TLR2 in wild type mouse BMDM cells assessed as stimulation of IL-12 production at 0.1 to 1 uM incubated for 24 hrs by ELISA; format: cell-based
[7] = biological target: Toll-like receptor 2 (Mus musculus) (UniProt Q9QUN7); assay: Agonist activity at TLR2 in mouse RAW264.7 cells assessed as induction of IL-6 production incubated for 24 hrs by ELISA; format: cell-based
[8] = biological target: Toll-like receptor 2 (Mus musculus) (UniProt Q9QUN7); assay: Activation of TLR2 in wild type mouse BMDM cells assessed as stimulation of IL-6 production at 0.1 to 1 uM incubated for 24 hrs by ELISA; format: cell-based
[9] = biological target: Toll-like receptor 2 (Mus musculus) (UniProt Q9QUN7); assay: Agonist activity at TLR2 in wild type mouse BMDM cells assessed as induction of NFkappaB pathway activation by measuring increase in IL-6 mRNA expression by qRT-PCR analysis; format: cell-based
[10] = biological target: Toll-like receptor 2 (Mus musculus) (UniProt Q9QUN7); assay: Agonist activity at TLR2 in mouse BV2 cells assessed as increase in IL-6 secretion at 1 uM incubated for 24 hrs in presence of NF-kappaB inhibitor triptolide by ELISA; format: cell-based
[11] = biological target: Toll-like receptor 2 (Mus musculus) (UniProt Q9QUN7); assay: Agonist activity at TLR2 in mouse dendritic cells assessed as upregulation MHC class 2 expression at 100 ng/ml by flow cytometry; format: cell-based
[12] = biological target: Toll-like receptor 2 (Homo sapiens) (UniProt O60603); assay: Agonist activity at human TLR2 in PMA-differentiated THP-1 cells assessed as induction of IL-6 production at 0.5 to 2.5 uM incubated for 24 hrs by ELISA; format: cell-based
BMDM [13] = assay: Effect on IL-6 production in TLR2-/- mouse BMDM cells at 0.1 to 1 uM incubated for 24 hrs by ELISA; format: functional, cell-based
BMDM [14] = assay: Effect on TNFalpha production in TLR2-/- mouse BMDM cells at 0.1 to 1 uM incubated for 24 hrs by ELISA; format: functional, cell-based
[15] = biological target: Toll-like receptor 2 (Mus musculus) (UniProt Q9QUN7); assay: Agonist activity at TLR2 in mouse dendritic cells assessed as upregulation CD80 expression at 100 ng/ml by flow cytometry; format: cell-based
THP-1 [16] = assay: Agonist activity at TLR2/1 in PMA-differentiated human THP-1 cells assessed as induction of IL-6 production at 2.5 uM incubated for 24 hrs after preincubation with anti-hTLR1-IGG for 2 hrs by ELISA; format: cell-based
TLR2/TLR6 (Homo sapiens) [17] = biological target: T1, TLR2/TLR6 (Homo sapiens) (UniProt O60603+Q9Y2C9); assay: Agonist activity at TLR2/6 in PMA-differentiated human THP-1 cells assessed as induction of IL-6 production at 2.5 uM incubated for 24 hrs after preincubation with anti-hTLR6-IGG for 2 hrs by ELISA; format: cell-based
[18] = biological target: Toll-like receptor 1/2 (Homo sapiens) (UniProt O60603+Q15399); assay: Agonist activity at TLR2/1 in PMA-differentiated human THP-1 cells assessed as induction of IL-6 production at 2.5 uM incubated for 24 hrs after preincubation with anti-hTLR2-IGA for 2 hrs by ELISA; format: cell-based
[19] = biological target: Toll-like receptor 2 (Mus musculus) (UniProt Q9QUN7); assay: Agonist activity at TLR2 in mouse BV2 cells assessed as increase in IL-6 secretion at 2 uM incubated for 24 hrs by ELISA; format: cell-based
[20] = biological target: Toll-like receptor 2 (Mus musculus) (UniProt Q9QUN7); assay: Agonist activity at TLR2 in mouse dendritic cells assessed as upregulation CD86 expression at 100 ng/ml by flow cytometry; format: cell-based
[21] = biological target: Toll-like receptor 2 (Mus musculus) (UniProt Q9QUN7); assay: Agonist activity at TLR2 in mouse BV2 cells assessed as stimulation of NFkappaB pathway by measuring increase in IkappaBalpha phosphorylation incubated for 12 hrs by Western blot analysis; format: cell-based
BMDM [22] = assay: Effect on IL-12 production in TLR2-/- mouse BMDM cells at 0.1 to 1 uM incubated for 24 hrs by ELISA; format: functional, cell-based
THP-1 [23] = assay: Cytotoxicity against human THP1 cells assessed as cell viability up to 5 uM incubated for 24 hrs by CCK-8 assay; format: cell-based; details: thp-1, 24 h
[24] = Effect on TNFalpha mRNA expression in TLR2-/- mouse BMDM cells at 0.1 to 1 uM by qRT-PCR analysis; format: ADME, cell-based
Dendritic cell [25] = assay: Effect on CD86 expression in TLR2-/- mouse dendritic cells at 100 ng/ml by flow cytometry; format: ADME, cell-based
Dendritic cell [26] = assay: Effect on MHC class 2 expression in TLR2-/- mouse dendritic cells at 100 ng/ml by flow cytometry; format: ADME, cell-based
Toll-like receptor 2 = Toll-like receptor 2 (Mus musculus, UniProt Q9QUN7); assay: Agonist activity at TLR2 in wild type mouse BMDM cells assessed as induction of NFkappaB pathway activation by measuring increase in TNF-alpha mRNA expression by qRT-PCR analysis; format: cell-based
Dendritic cell [27] = assay: Effect on CD80 expression in TLR2-/- mouse dendritic cells at 100 ng/ml by flow cytometry; format: ADME, cell-based
TLR2/TLR6 (Homo sapiens) [28] = biological target: T1, TLR2/TLR6 (Homo sapiens); assay: Agonist activity at TLR2/6 in PMA-differentiated human THP-1 cells assessed as induction of IL-6 production at 2.5 uM incubated for 24 hrs after preincubation with […] for 2 hrs by ELISA; format: cell-based
[29] = biological target: Toll-like receptor 1/2 (Mus musculus) (UniProt Q9QUN7+Q9EPQ1); assay: Agonist activity at TLR2/1 in mouse BV2 cells assessed as induction of IL-6 production at 2 uM incubated for 24 hrs in presence of TLR2/1 inhibitor CU-CPT22 by ELISA; format: cell-based

Sequence of Toll-like receptor 2 (Mus musculus) (Q9QUN7 whole entry): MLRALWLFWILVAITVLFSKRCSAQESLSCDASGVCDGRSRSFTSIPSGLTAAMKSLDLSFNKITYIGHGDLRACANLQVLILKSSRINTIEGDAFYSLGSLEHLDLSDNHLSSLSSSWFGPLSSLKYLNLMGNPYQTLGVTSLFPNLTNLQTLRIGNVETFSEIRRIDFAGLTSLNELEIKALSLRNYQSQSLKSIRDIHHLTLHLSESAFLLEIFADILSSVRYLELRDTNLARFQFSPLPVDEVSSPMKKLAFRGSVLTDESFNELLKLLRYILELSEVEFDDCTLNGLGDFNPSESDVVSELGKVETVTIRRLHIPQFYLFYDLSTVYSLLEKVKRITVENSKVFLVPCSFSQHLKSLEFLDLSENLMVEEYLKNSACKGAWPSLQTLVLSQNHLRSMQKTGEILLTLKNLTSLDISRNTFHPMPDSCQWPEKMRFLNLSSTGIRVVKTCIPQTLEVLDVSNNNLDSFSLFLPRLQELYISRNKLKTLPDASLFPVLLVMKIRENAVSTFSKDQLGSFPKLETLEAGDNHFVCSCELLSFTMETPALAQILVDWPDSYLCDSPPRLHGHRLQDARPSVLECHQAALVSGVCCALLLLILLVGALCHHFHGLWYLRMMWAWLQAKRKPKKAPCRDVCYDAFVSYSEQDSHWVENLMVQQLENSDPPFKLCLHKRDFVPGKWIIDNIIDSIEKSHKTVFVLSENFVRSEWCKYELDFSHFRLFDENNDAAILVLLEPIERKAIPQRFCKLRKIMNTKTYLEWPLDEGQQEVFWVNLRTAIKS
Sequence of Toll-like receptor 2 (Q9QUN7 whole entry): as above
Sequence of Toll-like receptor 2 (Homo sapiens) (O60603 whole entry): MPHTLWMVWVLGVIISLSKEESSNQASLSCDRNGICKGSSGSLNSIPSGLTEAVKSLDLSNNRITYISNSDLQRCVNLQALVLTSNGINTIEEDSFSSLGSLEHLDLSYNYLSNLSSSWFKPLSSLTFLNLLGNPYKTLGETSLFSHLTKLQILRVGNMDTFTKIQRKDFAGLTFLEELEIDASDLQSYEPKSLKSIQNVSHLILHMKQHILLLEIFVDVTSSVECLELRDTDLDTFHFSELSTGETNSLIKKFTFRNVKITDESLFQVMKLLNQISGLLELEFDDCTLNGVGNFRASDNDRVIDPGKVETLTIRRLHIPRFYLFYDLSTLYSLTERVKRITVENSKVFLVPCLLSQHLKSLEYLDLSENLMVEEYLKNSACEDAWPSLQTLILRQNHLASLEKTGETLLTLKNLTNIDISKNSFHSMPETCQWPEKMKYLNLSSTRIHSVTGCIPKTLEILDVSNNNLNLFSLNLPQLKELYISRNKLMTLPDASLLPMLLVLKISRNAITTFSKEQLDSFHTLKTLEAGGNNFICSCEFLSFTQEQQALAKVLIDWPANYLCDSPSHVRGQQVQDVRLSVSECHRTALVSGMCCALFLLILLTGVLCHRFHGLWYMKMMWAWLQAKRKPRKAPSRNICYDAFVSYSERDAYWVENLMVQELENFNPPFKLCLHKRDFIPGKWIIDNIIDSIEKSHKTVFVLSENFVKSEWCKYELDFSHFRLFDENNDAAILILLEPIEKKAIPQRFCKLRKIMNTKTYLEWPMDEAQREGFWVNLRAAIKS

Structure (SMILES): CCCCCCCCCCCCCCCCOC(=O)NCCSC[C@H](NC(=O)CCCCCCCCCCCCCCC)C(=O)N[C@@H](CO)C(=O)N[C@@H](CCCCN)C(=O)N[C@@H](CCCCN)C(=O)N[C@@H](CCCCN)C(=O)O
Activity (BV-2 [1]): Non-Toxic

Structure (SMILES): CCCCCCCCCCCCCCCC(=O)N[C@@H](CSCCNC(=O)OCCCCCCCCCCCCCC)C(=O)N[C@@H](CO)C(=O)N[C@@H](CCCCN)C(=O)N[C@@H](CCCCN)C(=O)N[C@@H](CCCCN)C(=O)N[C@@H](CCCCN)C(=O)O
Activity [2]: Non-Toxic | Activity [3]: Non-Toxic | Activity (BV-2 [4]): Active

Structure (SMILES): CCCCCCCCCCCCCCCCOC(=O)NCCSC[C@H](NC(=O)CCCCCCCCCCCCCCC)C(=O)N[C@H](CO)C(=O)N[C@@H](CCCCN)C(=O)N[C@@H](CCCCN)C(=O)N[C@@H](CCCCN)C(=O)N[C@@H](CCCCN)C(=O)O
Activity [5]: Active | Activity [6]: Active | Activity [7]: Dose-dependent effect | Activity [8]: inactive | Activity [9]: Dose-dependent effect | Activity [10]: inactive | Activity [11]: Active | Activity [12]: Active | Activity (BMDM [13]): Active | Activity (BMDM [14]): inactive | Activity [15]: Dose-dependent effect | Activity (THP-1 [16]): inactive | Activity (TLR2/TLR6 (Homo sapiens) [17]): inactive | Activity [18]: Active | Activity [19]: Active | Activity [20]: Active | Activity [21]: inactive

Structure (SMILES): CCCCCCCCCCCCCCCC(=O)N[C@@H](CSCCNC(=O)OCCCCCCCCCCCCCC)C(=O)N[C@H](CO)C(=O)N[C@@H](CCCCN)C(=O)N[C@@H](CCCCN)C(=O)N[C@@H](CCCCN)C(=O)N[C@@H](CCCCN)C(=O)O
Activity [5]: Active | Activity [6]: Active | Activity [8]: inactive | Activity [9]: Dose-dependent effect | Activity [10]: inactive | Activity (BMDM [13]): Active | Activity (BMDM [14]): inactive | Activity [15]: Dose-dependent effect | Activity [18]: inactive

Structure (SMILES): CCCCCCCCCCCCCCCC(=O)NCCSC[C@H](NC(=O)CCCCCCCCCCCCCCC)C(=O)N[C@H](CO)C(=O)N[C@@H](CCCCN)C(=O)N[C@@H](CCCCN)C(=O)N[C@@H](CCCCN)C(=O)N[C@@H](CCCCN)C(=O)O
Activity (BMDM [13]): inactive | Activity [18]: inactive

Structure (SMILES): CCCCCCCCCCCCCCCCOC(=O)NCCSC[C@H](NC(=O)CCCCCCCCCCCCCCC)C(=O)N[C@H](CO)C(=O)N[C@@H](CCCCN)C(=O)N[C@@H](CCCCN)C(=O)N[C@@H](CCCCN)C(=O)O
Activity (BMDM [13]): Active | Activity [18]: Active | Activity [19]: Active

Structure (SMILES): CCCCCCCCCCCCCCCCNC(=O)NCCSC[C@H](NC(=O)CCCCCCCCCCCCCCC)C(=O)N[C@H](CO)C(=O)N[C@@H](CCCCN)C(=O)N[C@@H](CCCCN)C(=O)N[C@@H](CCCCN)C(=O)N[C@@H](CCCCN)C(=O)O
Activity (BMDM [13]): inactive | Activity [18]: inactive

Structure (SMILES): CCCCCCCCCCCCCCCCOC(=O)NCCSC[C@H](NC(=O)NCCCCCCCCCCCCCC)C(=O)N[C@H](CO)C(=O)N[C@@H](CCCCN)C(=O)N[C@@H](CCCCN)C(=O)N[C@@H](CCCCN)C(=O)N[C@@H](CCCCN)C(=O)O
Activity (TLR2/TLR6 (Homo sapiens) [28]): inactive | Activity (BMDM [13]): inactive | Activity [29]: inactive | Activity [19]: Active

Structure (SMILES): CCCCCCCCCCCCCCCCOC(=O)NCCSC[C@H](NC(=O)NCCCCCCCCCCCCCC)C(=O)N[C@@H](CO)C(=O)N[C@@H](CCCCN)C(=O)N[C@@H](CCCCN)C(=O)N[C@@H](CCCCN)C(=O)N[C@@H](CCCCN)C(=O)O
Activity (BV-2 [1]): Non-Toxic

Now from value to molecule, other results behind:

Activity [9]: Dose-dependent effect | Activity [15]: Dose-dependent effect | Activity (TLR2/TLR6 (Homo sapiens) [17]): inactive
Structure (SMILES): CCCCCCCCCCCCCCCC(=O)N[C@@H](CSC[C@@H](COC(=O)CCCCCCCCCCCCCCC)OC(=O)CCCCCCCCCCCCCCC)C(=O)N[C@@H](CO)C(=O)N[C@@H](CCCCN)C(=O)N[C@@H](CCCCN)C(=O)N[C@@H](CCCCN)C(=O)N[C@@H](CCCCN)C(=O)O (Palmitoyl-C(Propyl(2R-PamO,3-PamO))SKKKK-OH)
Activity (BMDM [22]): Active | Activity [2]: Non-Toxic | Activity (THP-1 [16]): inactive | Activity [3]: Non-Toxic

Activity (BV-2 [4]): Active
Structure (SMILES): CCCCCCCCCCCCCCCC(=O)N[C@@H](CSCCOC(=O)CCCCCCCCCCCCCCC)C(=O)N[C@@H](CO)C(=O)N[C@@H](CCCCN)C(=O)N[C@@H](CCCCN)C(=O)N[C@@H](CCCCN)C(=O)N[C@@H](CCCCN)C(=O)O
Activity (BV-2 [1]): Non-Toxic | Activity [2]: Non-Toxic | Activity [3]: Non-Toxic

Activity (BV-2 [4]): Active | EC50 (Toll-like receptor 2): 0.0831 µM | Activity (Dendritic cell [27]): Active
Structure (SMILES): CCCCCCCCCCCCCCCCOC(=O)NCCSC[C@H](NC(=O)CCCCCCCCCCCCCCC)C(=O)N[C@@H](CO)C(=O)N[C@@H](CCCCN)C(=O)N[C@@H](CCCCN)C(=O)N[C@@H](CCCCN)C(=O)N[C@@H](CCCCN)C(=O)O
Activity (BV-2 [1]): Non-Toxic | Activity (THP-1 [23]): Non-Toxic | Activity [2]: Non-Toxic | Activity [24]: Non-Toxic | Activity (Dendritic cell [25]): Non-Toxic | Activity [3]: Non-Toxic | Activity (Dendritic cell [26]): Non-Toxic

Activity [5]: Active | Activity [6]: Active | Activity [8]: inactive | Activity [9]: Dose-dependent effect | Activity [10]: inactive | Activity [15]: Dose-dependent effect | Activity (TLR2/TLR6 (Homo sapiens) [17]): inactive | Activity [18]: Active | Activity [19]: Active
Structure (SMILES): CCCCCCCCCCCCCCCC(=O)N[C@@H](CSCCOC(=O)CCCCCCCCCCCCCCC)C(=O)N[C@H](CO)C(=O)N[C@@H](CCCCN)C(=O)N[C@@H](CCCCN)C(=O)N[C@@H](CCCCN)C(=O)N[C@@H](CCCCN)C(=O)O
Activity (BMDM [13]): Dose-dependent effect | Activity (BMDM [14]): inactive | Activity (THP-1 [16]): inactive
